According to patent publication US20230257372A1 (CHONG KUN DANG PHARMACEUTICAL CORP., priority 2020, published 2023):
Where two headings read alike, the source gives them in different places.

Columns and labels:
human recombinant HDAC1 = molecular target: T1, human recombinant HDAC1 (Homo sapiens, UniProt Q13547); assay: HDAC1 enzyme activity inhibition (HDAC Fluorimetric Drug Discovery Kit); format: biochemical; conditions: read-out: HDAC1
T1 construct: purchased Enzo Life Science, Inc. BML-SE456
Summary of the method: (§1)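 Five-fold compound dilutions incubated with […] recombinant enzyme and 10 μM fluorogenic Fluor de Lys substrate, 60 min at 30° C. Fluor de Lys Developer II then added for 30 min to generate the fluorescent read-out.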

human recombinant HDAC6 = molecular target: T2, human recombinant HDAC6 (Homo sapiens, UniProt Q9UBN7); assay: HDAC6 enzyme activity inhibition (HDAC Fluorimetric Drug Discovery Kit); format: biochemical
T2 construct: purchased Calbiochem Inc. 382180
T2 sequence (Q9UBN7 1-1215): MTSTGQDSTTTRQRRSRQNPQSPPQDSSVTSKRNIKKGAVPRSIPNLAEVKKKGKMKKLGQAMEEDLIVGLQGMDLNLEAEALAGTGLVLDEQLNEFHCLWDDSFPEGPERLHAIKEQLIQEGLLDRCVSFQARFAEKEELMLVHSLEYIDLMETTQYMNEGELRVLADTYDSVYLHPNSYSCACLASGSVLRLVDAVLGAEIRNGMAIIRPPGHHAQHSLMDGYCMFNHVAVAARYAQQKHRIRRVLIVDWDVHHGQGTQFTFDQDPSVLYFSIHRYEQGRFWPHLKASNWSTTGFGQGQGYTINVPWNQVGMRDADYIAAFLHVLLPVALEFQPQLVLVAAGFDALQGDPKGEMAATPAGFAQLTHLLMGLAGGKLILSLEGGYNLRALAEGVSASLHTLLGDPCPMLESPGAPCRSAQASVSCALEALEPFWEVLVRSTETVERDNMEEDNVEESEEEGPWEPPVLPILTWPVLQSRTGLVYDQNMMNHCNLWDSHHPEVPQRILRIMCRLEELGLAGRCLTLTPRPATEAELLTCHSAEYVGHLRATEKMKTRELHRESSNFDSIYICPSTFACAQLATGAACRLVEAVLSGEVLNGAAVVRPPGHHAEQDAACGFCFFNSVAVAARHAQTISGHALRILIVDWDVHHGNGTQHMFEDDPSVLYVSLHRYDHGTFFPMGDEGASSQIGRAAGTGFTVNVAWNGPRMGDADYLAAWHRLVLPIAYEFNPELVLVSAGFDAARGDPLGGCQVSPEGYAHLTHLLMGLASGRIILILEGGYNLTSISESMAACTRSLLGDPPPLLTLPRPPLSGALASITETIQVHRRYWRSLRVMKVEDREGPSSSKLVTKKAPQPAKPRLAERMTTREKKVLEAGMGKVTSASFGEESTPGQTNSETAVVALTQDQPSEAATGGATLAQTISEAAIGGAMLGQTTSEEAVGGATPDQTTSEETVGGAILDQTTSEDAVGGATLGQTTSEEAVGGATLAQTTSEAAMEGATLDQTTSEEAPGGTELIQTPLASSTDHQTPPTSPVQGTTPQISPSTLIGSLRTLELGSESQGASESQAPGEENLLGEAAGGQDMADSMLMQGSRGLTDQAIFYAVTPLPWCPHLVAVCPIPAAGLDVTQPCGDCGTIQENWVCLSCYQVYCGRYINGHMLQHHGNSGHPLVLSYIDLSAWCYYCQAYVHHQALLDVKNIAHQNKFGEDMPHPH
Summary of the method: as §1

[1] = human recombinant HDAC1, IC50 calculated with GraphPad Prism
[2] = human recombinant HDAC6, IC50 calculated with GraphPad Prism
[3] = human recombinant HDAC1, Fluor de Lys substrate, 30° C. 60 minutes
[4] = human recombinant HDAC6, same protocol as HDAC1

T1 sequence (Q13547 whole entry): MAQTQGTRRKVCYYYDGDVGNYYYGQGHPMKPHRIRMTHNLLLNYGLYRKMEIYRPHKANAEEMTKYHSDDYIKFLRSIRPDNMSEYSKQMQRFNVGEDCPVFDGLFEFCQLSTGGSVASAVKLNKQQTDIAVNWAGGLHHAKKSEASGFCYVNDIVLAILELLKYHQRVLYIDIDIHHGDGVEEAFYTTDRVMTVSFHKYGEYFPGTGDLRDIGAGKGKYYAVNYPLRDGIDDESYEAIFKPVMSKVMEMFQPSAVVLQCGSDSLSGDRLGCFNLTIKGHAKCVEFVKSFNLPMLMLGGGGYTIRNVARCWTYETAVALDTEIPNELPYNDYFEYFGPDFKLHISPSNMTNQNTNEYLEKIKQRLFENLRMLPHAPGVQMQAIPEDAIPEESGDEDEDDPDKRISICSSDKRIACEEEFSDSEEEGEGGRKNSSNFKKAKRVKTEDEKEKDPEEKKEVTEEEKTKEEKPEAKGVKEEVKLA

## CC(C)(C)OC(=O)Nc1cccc(-c2cn(Cc3ccc(-c4nnc(C(F)F)o4)cc3F)nn2)c1 [Compound 3697, Tert-butyl (3-(1-(4-(5-(difluoromethyl)-1,3,4-oxadiazol-2-yl)-2-fluorobenzyl)-1H-1,2,3-triazol-4-yl)phenyl)carbamate]
Human recombinant HDAC1; [1]
  IC50: > 50000 nM
Human recombinant HDAC6; HDAC1 IC50 / HDAC6 IC50
  HDAC6 selectivity (fold): 1101 fold
Human recombinant HDAC6; [2]
  IC50: 45.4 nM

## CN(C)C(C)(C)C(=O)Nc1cccc(-c2cn(Cc3ccc(-c4nnc(C(F)F)o4)cc3F)nn2)c1 [Compound 4353]
Human recombinant HDAC1; [1]
  IC50: > 50000 nM
Human recombinant HDAC6; HDAC1 IC50 / HDAC6 IC50
  HDAC6 selectivity (fold): 1201 fold
Human recombinant HDAC6; [2]
  IC50: 41.6 nM

## FC(F)c1nnc(-c2ccc(Cn3cc(-c4ccc5c(c4)CCN(C4CCC4)C5)nn3)nc2)o1 [Compound 4054, 2-(6-((4-(2-cyclobutyl-1,2,3,4-tetrahydroisoquinolin-6-yl)-1H-1,2,3-triazol-1-yl)methyl)pyridin-3-yl)-5-(difluoromethyl)-1,3,4-oxadiazole]
Human recombinant HDAC1; [1]
  IC50: > 50000 nM
Human recombinant HDAC6; HDAC1 IC50 / HDAC6 IC50
  HDAC6 selectivity (fold): 1094 fold
Human recombinant HDAC6; [2]
  IC50: 45.7 nM

## Fc1cc(-c2nnc(C(F)F)o2)cnc1Cn1cc(-c2ccc3cc[nH]c3c2)nn1 [Compound 18918, 2-(6-((4-(1H-indol-6-yl)-1H-1,2,3-triazol-1-yl)methyl)-5-fluoropyridin-3-yl)-5-(difluoromethyl)-1,3,4-oxadiazole]
Human recombinant HDAC1; [3]
  IC50: > 50000 nM
Human recombinant HDAC6; HDAC6 over HDAC1
  HDAC6 selectivity (fold): 1089 fold
Human recombinant HDAC6; [4]
  IC50: 45.9 nM

## CC(C)(F)CN1CCC(c2cn(Cc3ccc(-c4nnc(C(F)F)o4)cn3)nn2)CC1 [Compound 3895, 2-(difluoromethyl)-5-(6-((4-(1-(2-fluoro-2-methylpropyl)piperidin-4-yl)-1H-1,2,3-triazol-1-yl)methyl)pyridin-3-yl)-1,3,4-oxadiazole]
Human recombinant HDAC1; [1]
  IC50: > 50000 nM
Human recombinant HDAC6; HDAC1 IC50 / HDAC6 IC50
  HDAC6 selectivity (fold): 171 fold
Human recombinant HDAC6; [2]
  IC50: 293 nM

## FC(F)c1nnc(-c2ccc(Cn3cc(-c4cccc5cc[nH]c45)nn3)cc2)o1 [Compound 4081, 2-(4-((4-(1H-indol-7-yl)-1H-1,2,3-triazol-1-yl)methyl)phenyl)-5-(difluoromethyl)-1,3,4-oxadiazole]
Human recombinant HDAC1; [1]
  IC50: > 50000 nM
Human recombinant HDAC6; HDAC1 IC50 / HDAC6 IC50
  HDAC6 selectivity (fold): 478 fold
Human recombinant HDAC6; [2]
  IC50: 105 nM

## CC(C)(C)C(=O)N1CCC(c2cn(Cc3ccc(-c4nnc(C(F)F)o4)cn3)nn2)CC1 [Compound 3893, 1-(4-(1-((5-(5-(difluoromethyl)-1,3,4-oxadiazol-2-yl)pyridin-2-yl)methyl)-1H-1,2,3-triazol-4-yl)piperidin-1-yl)-2,2-dimethylpropan-1-one]
Human recombinant HDAC1; [1]
  IC50: > 50000 nM
Human recombinant HDAC6; HDAC1 IC50 / HDAC6 IC50
  HDAC6 selectivity (fold): 326 fold
Human recombinant HDAC6; [2]
  IC50: 153 nM

## CCOC(=O)N1CCC(c2cn(Cc3ccc(-c4nnc(C(F)F)o4)cn3)nn2)CC1 [Compound 3892, Ethyl4-(1-((5-(5-(difluoromethyl)-1,3,4-oxadiazol-2-yl)pyridin-2-yl)methyl)-1H-1,2,3-triazol-4-yl)piperidin-1-carboxylate]
Human recombinant HDAC1; [1]
  IC50: > 50000 nM
Human recombinant HDAC6; HDAC1 IC50 / HDAC6 IC50
  HDAC6 selectivity (fold): 357 fold
Human recombinant HDAC6; [2]
  IC50: 140 nM

## CN(C)Cc1c(-c2ccccc2)nnn1Cc1ccc(-c2nnc(C(F)F)o2)cc1F [Compound 4491, 1-(1-(4-(5-(difluoromethyl)-1,3,4-oxadiazol-2-yl)-2-fluorobenzyl)-4-phenyl-1H-1,2,3-triazol-5-yl)-N,N-dimethylmethanamine]
Human recombinant HDAC1; [1]
  IC50: > 50000 nM
Human recombinant HDAC6; HDAC1 IC50 / HDAC6 IC50
  HDAC6 selectivity (fold): 433 fold
Human recombinant HDAC6; [2]
  IC50: 115 nM

## FC(F)c1nnc(-c2ccc(Cn3cc(-c4ccccc4-n4cncn4)nn3)nc2)o1 [Compound 4286, 2-(6-((4-(2-(1H-1,2,4-triazol-1-yl)phenyl)-1H-1,2,3-triazol-1-yl)methyl)pyridin-3-yl)-5-(difluoromethyl)-1,3,4-oxadiazole]
Human recombinant HDAC1; [1]
  IC50: > 50000 nM
Human recombinant HDAC6; HDAC1 IC50 / HDAC6 IC50
  HDAC6 selectivity (fold): 154 fold
Human recombinant HDAC6; [2]
  IC50: 324 nM

## CN1C[C@@H]2C[C@H]1CN2c1cc(-c2cn(Cc3ccc(-c4nnc(C(F)F)o4)cc3F)nn2)ccc1F [Compound 4430, 2-(difluoromethyl)-5-(3-fluoro-4-((4-(4-fluoro-3-((1S,4S)-5-methyl-2,5-diazabicyclo[2.2.1]heptan-2-yl)phenyl)-1H-1,2,3-triazol-1-yl)methyl)phenyl)-1,3,4-oxadiazole]
Human recombinant HDAC1; [1]
  IC50: > 50000 nM
Human recombinant HDAC6; HDAC1 IC50 / HDAC6 IC50
  HDAC6 selectivity (fold): 351 fold
Human recombinant HDAC6; [2]
  IC50: 142 nM

## FC(F)c1nnc(-c2ccc(Cn3cc(-c4ccnc(N5CCN(C6CC6)CC5)c4)nn3)nc2)o1 [Compound 4593, 2-(6-((4-(2-(4-cyclopropylpiperazin-1-yl)pyridin-4-yl)-1H-1,2,3-triazol-1-yl)methyl)pyridin-3-yl)-5-(difluoromethyl)-1,3,4-oxadiazole]
Human recombinant HDAC1; [3]
  IC50: > 50000 nM
Human recombinant HDAC6; HDAC6 over HDAC1
  HDAC6 selectivity (fold): 2127 fold
Human recombinant HDAC6; [4]
  IC50: 23.5 nM

## CN1CCN(C(=O)c2cccc(-c3cn(Cc4ccc(-c5nnc(C(F)F)o5)cn4)nn3)c2)CC1 [Compound 3887, (3-(1-((5-(5-(difluoromethyl)-1,3,4-oxadiazol-2-yl)pyridin-2-yl)methyl)-1H-1,2,3-triazol-4-yl)phenyl)(4-methylpiperazin-1-yl)methanone]
Human recombinant HDAC1; [1]
  IC50: > 50000 nM
Human recombinant HDAC6; HDAC1 IC50 / HDAC6 IC50
  HDAC6 selectivity (fold): 875 fold
Human recombinant HDAC6; [2]
  IC50: 57.1 nM

## CCN1CCN(Cc2cccc(-c3cn(Cc4ccc(-c5nnc(C(F)F)o5)cc4)nn3)c2)CC1 [Compound 4415, 2-(difluoromethyl)-5-(4-((4-(3-((4-ethylpiperazin-1-yl)methyl)phenyl)-1H-1,2,3-triazol-1-yl)methyl)phenyl)-1,3,4-oxadiazole]
Human recombinant HDAC1; [1]
  IC50: > 50000 nM
Human recombinant HDAC6; HDAC1 IC50 / HDAC6 IC50
  HDAC6 selectivity (fold): 545 fold
Human recombinant HDAC6; [2]
  IC50: 91.7 nM

## OCc1ccc(-c2cn(Cc3ccc(-c4nnc(C(F)F)o4)cc3F)nn2)s1 [Compound 17922]
Human recombinant HDAC1; [3]
  IC50: > 50000 nM
Human recombinant HDAC6; HDAC6 over HDAC1
  HDAC6 selectivity (fold): 512 fold
Human recombinant HDAC6; [4]
  IC50: 97.6 nM

## FC(F)c1nnc(-c2ccc(Cn3cc(-c4cncnc4)nn3)nc2)o1 [Compound 3960, 2-(difluoromethyl)-5-(6-((4-(pyrimidin-5-yl)-1H-1,2,3-triazol-1-yl)methyl)pyridin-3-yl)-1,3,4-oxadiazole]
Human recombinant HDAC1; [1]
  IC50: > 50000 nM
Human recombinant HDAC6; HDAC1 IC50 / HDAC6 IC50
  HDAC6 selectivity (fold): 473 fold
Human recombinant HDAC6; [2]
  IC50: 105 nM

## Fc1c(-c2cn(Cc3ccc(-c4nnc(C(F)F)o4)cn3)nn2)cccc1N1CCN(C2CCC2)CC1 [Compound 4572, 2-(6-((4-(3-(4-cyclobutylpiperazin-1-yl)-2-fluorophenyl)-1H-1,2,3-triazol-1-yl)methyl)pyridin-3-yl)-5-(difluoromethyl)-1,3,4-oxadiazole]
Human recombinant HDAC1; [3]
  IC50: > 50000 nM
Human recombinant HDAC6; HDAC6 over HDAC1
  HDAC6 selectivity (fold): 2564 fold
Human recombinant HDAC6; [4]
  IC50: 19.5 nM

## CC(C)(C)OC(=O)NC(C)(C)C(=O)Nc1cccc(-c2cn(Cc3ccc(-c4nnc(C(F)F)o4)cn3)nn2)c1 [Compound 4495]
Human recombinant HDAC1; [1]
  IC50: > 50000 nM
Human recombinant HDAC6; HDAC1 IC50 / HDAC6 IC50
  HDAC6 selectivity (fold): 2262 fold
Human recombinant HDAC6; [2]
  IC50: 22.1 nM

## CN1CCN(c2ccccc2-c2cn(Cc3ccc(-c4nnc(C(F)F)o4)cn3)nn2)CC1 [Compound 4106, 2-(difluoromethyl)-5-(6-((4-(2-(4-methylpiperazin-1-yl)phenyl)-1H-1,2,3-triazol-1-yl)methyl)pyridin-3-yl)-1,3,4-oxadiazole]
Human recombinant HDAC1; [1]
  IC50: > 50000 nM
Human recombinant HDAC6; HDAC1 IC50 / HDAC6 IC50
  HDAC6 selectivity (fold): 877 fold
Human recombinant HDAC6; [2]
  IC50: 57 nM

## FC(F)c1nnc(-c2ccc(Cn3cc(-c4ccc5c(c4)CN(C4COC4)CC5)nn3)nc2)o1 [Compound 4213, 2-(difluoromethyl)-5-(6-((4-(2-(oxetan-3-yl)-1,2,3,4-tetrahydroisoquinolin-7-yl)-1H-1,2,3-triazol-1-yl)methyl)pyridin-3-yl)-1,3,4-oxadiazole]
Human recombinant HDAC1; [1]
  IC50: > 50000 nM
Human recombinant HDAC6; HDAC1 IC50 / HDAC6 IC50
  HDAC6 selectivity (fold): 1730 fold
Human recombinant HDAC6; [2]
  IC50: 28.9 nM
